Experimental data taken from US7507792B2, “MDA-7 proteins and methods of use thereof” (The Trustees of Columbia University In The City of New York, priority 1993, dated 2009).
Entries after “also recorded” stand apart in the source; their conditions may differ.

What was measured:
Type in all cases: cell-based, human
[1] = system: H0-1 cells; assay: Northern blotting of H0-1 RNA probed with mda cDNA clones; conditions: 24 hours
Method: Ten micrograms of total cellular RNA were separated on a 1% agarose gel, transferred to nylon membranes and then hybridized individually with radioactive probes prepared using appropriate inserts from the cDNA clones.
The mass excision of the library was performed using ExAssist helper phage as described above. The SOLR strain of Escherichia coli and cDNA phagemids were mixed at 37° C. for 15 min and plated onto LB plates containing ampicillin and IPTG/X-gal. White colonies were chosen at random, isolated and grown in LB medium. Plasmid minireps and restriction enzyme digestions were performed to confirm the presence of inserts. The inserts were isolated and used as robes for Northern blotting analysis (5,25). […] Radiolabeled probes were generated by random oligonucleotide priming (25). Prehybridization, hybridization, posthybridization washes, and autoradiography were performed as described (5,18,25).

[2] = system: HL-525 cells; assay: Cell growth (cell counts); conditions: 6 d, 3 nM TPA, 1 μM RA, 400 nM Vit D3
Method: Cell counts were determined by hemocytometer chamber counting. Immunofluorescence tests for reactivity with the OKM1 antibody (Ortho Pharmaceutical Corp., Raritan, N.J.) were performed as previously described (Murao et al., 1983).

[3] = system: mda-6 (WAF1/CIP1/SDI1); assay: Induction of mda-6 (WAF1/CIP1/SDI1) expression in HL-60 cells (Northern blotting, RT-PCR); conditions: TPA 3 nM, Vit D3 400 nM, RA 1 μM, DMSO 1%
Method: HL-60 cells were originally provided by Dr. R. C. Gallo (National Cancer Institute, Bethesda, Md.) (Collins et al., 1978; Huberman & Callaham, 1979). HL-60 cells designated HL-525 were derived by cloning HL-60 cells after subculturing 102 times in the presence of increasing concentrations (up to 3 μM) of TPA at 5- to 8-day intervals (Homma et al., 1986; Mitchell et al., 1986). […] Prior to the experiments described in this study, the HL-525 cells were subcultured more than 20 times in the absence of TPA. Cells were grown in 100-mm tissue culture dishes in RPMI 1640 medium supplemented with 20% fetal bovine serum, penicillin (100 units/ml) and streptomycin (100 μg/ml) (Grand Island Biological Co., NY) at 37° C. in an atmosphere of 5% CO2 in air in a humidified incubator. The 1,25-(OH)2D3(Vit D3) and TPA were dissolved in a final concentration of 0.01% DMSO, and all-trans retinoic acid (RA) was dissolved in 0.1% DMSO in culture medium. […]
RNA was purified by centrifugation through a CsC1 cushion as described by Chirgwin et al. (1979). […] Following hybridization, the filters were washed and exposed for autoradiography (Reddy et al., 1991; Su et al., 1991; Jiang et al., 1992). mda-6 and GAPDH gene expression were also determined by reverse transcription-polymerase chain reaction (RT-PCR) as described (Adollahi et al. 1991; Lin et al., 1994). […]

C=C(C)[C@@]12O[C@@]3(c4ccccc4)O[C@@H]1[C@@H]1[C@@H]4O[C@]4(CO)[C@@H](O)[C@]4(O)C(=O)C(C)=C[C@H]4[C@@]1(O3)[C@H](C)[C@H]2OC(=O)/C=C/C=C/c1ccccc1 [MEZ, mezerein]
mda-3 expression [1]: induced; also recorded: Increased expression

CC1=C(/C=C/C(C)=C/C=C/C(C)=C/C(=O)O)C(C)(C)CCC1 [RA, trans-retinoic acid]
reduction in growth (cell numbers) [2]: 35%

CCCCCCCCCCCCCC(=O)O[C@@H]1[C@@H](C)[C@@]2(O)[C@@H](C=C(CO)C[C@]3(O)C(=O)C(C)=C[C@@H]23)[C@@H]2C(C)(C)[C@]12OC(C)=O [TPA, 12-O-tetradecanoyl-phorbol-13-acetate]
time of treatment at which mda-6 expression is induced [3]: ≤ 2 h
